# Laboratory results reported in EP0139005A1, “ANTITUMOR COMPOSITION, METHOD FOR TREATING TUMOR, AND USE OF THE COMPOSITION FOR TREATING TUMOR” (Yoshitomi Pharmaceutical Industries, Ltd., priority 1982, dated 1984).
# What was measured:
# L1210 leukemia [1] = assay: L1210 leukemia implanted intraperitoneally, i.p. treatment, survival (Experimental Example 3); format: in vivo, female CDF1 mice; details: for Average Survival Time / Life-Prolongation Ratio (%): once daily for seven days
# Procedure: (§1) The life-prolongation ratio was calculated by the following scheme (the same scheme is applied to the subsequent experimental examples).
# (§2) Life-prolongation Ratio [formula] T : Average survival days of the treated group
# (§3) C : Average survival days of the control group
# (§4) Animals survived over 30 days or longer were estimated as 30-day survivors, and the cases where T/C equals to or greater than 125% were regarded as effective.
# A plurality of groups each consisting of five heads of female CDF1 mice (8 weeks old) were respectively implanted intraperitoneally with 10 cells of L1210 leukemia. After the next day of the implantation, Y-6430, ESCC and ESCC ethyl ester (hereinafter referred to ESCC-Et) in physiological saline were respectively administered once daily for seven days intraperitoneally, and the average survival days and life-prolongation ratios in each group were calculated.
# (§5) All the test animals died of tumor within 30 days.
# [2] = test system: human breast carcinoma MX-1; assay: Human breast carcinoma MX-1 implanted into kidneys, tumor weight change (Experimental Example 10); format: in vivo, male Swiss nude mice; details: 5th day and 9th day, tumor weight change on 11th day, experiment conducted by National Cancer Institute
# Procedure: A plurality of groups each consisting of six male Swiss nude mice as test groups and twelve of them as the control group were implanted into the respective kidneys with human breast carcinoma MX-1. Each of the animals was administered subcutaneously with Y-6430 dissolved in physiological saline on the next day to the implantation, 5th day and 9th day. On llth day, each of the weight of carcinoma was measured, and the tumor weight change (%) of the implanted carcinoma was calculated in accordance with the following scheme.
# [3] = Acute toxicity in AH-44 carcinoma bearing rats (Experimental Example 11); details: rat, in vivo, Donryu rats with AH-44 carcinoma cells
# Procedure: (§6) Acute toxicity value when Y-6430 was administered intraperitoneally to male ddn mice was 1,500 mgjkg or more. 'Acute toxicity values when AH-44 carcinoma cells were implanted peritoneally and orally to Donryu rats were both 1,000 mg/kg or more.
# AH44 hepatoma = AH44 hepatoma implanted intraperitoneally, single dose, survival (Experimental Example 5); format: in vivo, male Donryu rats; details: once, three days after implantation
# From the text: A plurality of groups each consisting of six male Donryu rats (7-8 weeks old) were respectively implanted intraperitoneally with 10^6 cells of AH44 hepatoma. Three days after the implantation, each test animal was once administered orally or intraperitoneally with Y-6430.
# Ehrlich carcinoma = Ehrlich carcinoma implanted intraperitoneally, survival (Experimental Example 6); format: in vivo, male ICR mice; details: once daily for seven days
# Procedure: A plurality of groups each consisting of six male ICR mice (7-8 weeks old) were implanted intraperitoneally with 2 x 10^6 Ehrlich carcinoma. After 24 hours, Y-6430 dissolved in physiological saline was administered intraperitoneally once daily for seven days.
# L1210 leukemia [4] = assay: L1210 leukemia implanted intraperitoneally, oral or subcutaneous treatment, survival (Experimental Example 4); format: in vivo, female CDF1 mice; details: for Average Survival Time / Life-Prolongation Ratio (%): once daily for seven days
# Procedure: as §1, §2, §3, §4
# A plurality of groups each consisting of five female CDF1 mice (7-8 weeks old) were respectively implanted intraperitoneally with 10 cells of L1210 leukemia. After the next day of the implantation, the test animals were administered orally or subcutaneously once daily for seven days with Y-6430 or ESCC dissolved in physiological saline, and the average survival days and life-prolongation ratios in each group were calculated.
# as §5
# P388 leukemia = P388 leukemia implanted intraperitoneally, survival (Experimental Example 2); format: in vivo, female CDF1 mice; details: for 30-day Survivors / Average Survival Time / Life-Prolongation Ratio (%): once daily for seven days
# Procedure: as §1, §2, §3, §4
# A plurality of groups each consisting of five heads of female CDF1 mice (7-8 weeks old) were respectively implanted intraperitoneally with 10^6 cells of P388 leukemia. After 24 hours, Y-6430 and ESCC were respectively administered once daily for seven days, and average survival days, life-prolongation ratios and 30-day survivors in each group were calculated.
# sarcoma 180 = assay: Sarcoma 180 implanted intraperitoneally, survival (Experimental Example 9); format: in vivo, male ICR mice; details: once daily for seven days
# Procedure: A plurality of groups each consisting of 12 male ICR mice (6-8 weeks old) were implanted intraperitoneally with 2 x 10^6 cells of sarcoma 180. After the next day to the implantation, Y-6430 was administered intraperitoneally or subcutaneously once daily for seven days.
# [5] = Acute toxicity in mice (Experimental Example 11); details: mouse, in vivo, ip; administered intraperitoneally, male ddn mice
# Procedure: as §6
smiles,measurement,setting,value
"CCOC(=O)[C@@H](N)CSC(=O)NC.Cl [Y-6430, S-methylcarbamoyl-L-cysteine ethyl ester hydrochloride]",Average Survival Time,L1210 leukemia [1]; 50 mg/kg/day i.p.,8.4 days
same,Life-Prolongation Ratio (%),L1210 leukemia [1]; 50 mg/kg/day i.p.,105%
same,Average Survival Time,L1210 leukemia [1]; 100 mg/kg/day i.p.,9.4 days
same,Life-Prolongation Ratio (%),L1210 leukemia [1]; 100 mg/kg/day i.p.,118%
same,Average Survival Time,L1210 leukemia [1]; 250 mg/kg/day i.p.,9.8 days
same,Life-Prolongation Ratio (%),L1210 leukemia [1]; 250 mg/kg/day i.p.,123%
same,Average Survival Time,L1210 leukemia [1]; 500 mg/kg/day i.p.,12.4 days
same,Life-Prolongation Ratio (%),L1210 leukemia [1]; 500 mg/kg/day i.p.,155%
same,effectiveness against L1210 leukemia,L1210 leukemia [1]; group administered with 500 mg/kg i.p.,effective
same,Proliferation Ratio (%),[2]; 225 mg/kg s.c. on next day,-70%
same,Proliferation Ratio (%),[2]; 450 mg/kg s.c. on next day,-64%
same,Proliferation Ratio (%),[2]; 900 mg/kg s.c. on next day,-65%
same,LD50,"[3]; ip, peritoneally",≥ 1000 mg/kg
same,LD50,"[3]; po, orally",≥ 1000 mg/kg
same,30-day Survivors,AH44 hepatoma; 500 mg/kg p.o.,0/6
same,Average Survival Time,AH44 hepatoma; 500 mg/kg p.o.,11.2 days
same,30-day Survivors,"AH44 hepatoma; 1,000 mg/kg i.p.",1/6
same,Average Survival Time,"AH44 hepatoma; 1,000 mg/kg i.p.",14.7 days
same,30-day Survivors,"AH44 hepatoma; 1,000 mg/kg p.o.",0/6
same,Average Survival Time,"AH44 hepatoma; 1,000 mg/kg p.o.",10.8 days
same,30-day Survivors,Ehrlich carcinoma; 50 mg/kg/day i.p.,0/12
same,Average Survival Time,Ehrlich carcinoma; 50 mg/kg/day i.p.,18.6 days
same,30-day Survivors,Ehrlich carcinoma; 100 mg/kg/day i.p.,6/12
same,Average Survival Time,Ehrlich carcinoma; 100 mg/kg/day i.p.,26.0 days
same,Average Survival Time,L1210 leukemia [4]; 100 mg/kg/day s.c.,8.2 days
same,Life-Prolongation Ratio (%),L1210 leukemia [4]; 100 mg/kg/day s.c.,103%
same,Average Survival Time,L1210 leukemia [4]; 250 mg/kg/day p.o.,9.4 days
same,Life-Prolongation Ratio (%),L1210 leukemia [4]; 250 mg/kg/day p.o.,115%
same,Average Survival Time,L1210 leukemia [4]; 250 mg/kg/day s.c.,9.2 days
same,Life-Prolongation Ratio (%),L1210 leukemia [4]; 250 mg/kg/day s.c.,115%
same,Average Survival Time,L1210 leukemia [4]; 500 mg/kg/day p.o.,11.4 days
same,Life-Prolongation Ratio (%),L1210 leukemia [4]; 500 mg/kg/day p.o.,139%
same,Average Survival Time,L1210 leukemia [4]; 500 mg/kg/day s.c.,10.8 days
same,Life-Prolongation Ratio (%),L1210 leukemia [4]; 500 mg/kg/day s.c.,135%
same,Average Survival Time,"L1210 leukemia [4]; 1,000 mg/kg/day p.o.",13.8 days
same,Life-Prolongation Ratio (%),"L1210 leukemia [4]; 1,000 mg/kg/day p.o.",168%
same,effectiveness against L1210 leukemia,L1210 leukemia [4]; oral and subcutaneous administration,effective
same,30-day Survivors,P388 leukemia; 100 mg/kg/day i.p.,0/5
same,Average Survival Time,P388 leukemia; 100 mg/kg/day i.p.,13.4 days
same,Life-Prolongation Ratio (%),P388 leukemia; 100 mg/kg/day i.p.,134%
same,30-day Survivors,P388 leukemia; 100 mg/kg/day p.o.,0/5
same,Average Survival Time,P388 leukemia; 100 mg/kg/day p.o.,11.6 days
same,Life-Prolongation Ratio (%),P388 leukemia; 100 mg/kg/day p.o.,116%
same,30-day Survivors,P388 leukemia; 250 mg/kg/day i.p.,0/5
same,Average Survival Time,P388 leukemia; 250 mg/kg/day i.p.,14.6 days
same,Life-Prolongation Ratio (%),P388 leukemia; 250 mg/kg/day i.p.,146%
same,30-day Survivors,P388 leukemia; 250 mg/kg/day p.o.,0/5
same,Average Survival Time,P388 leukemia; 250 mg/kg/day p.o.,13.4 days
same,Life-Prolongation Ratio (%),P388 leukemia; 250 mg/kg/day p.o.,134%
same,30-day Survivors,P388 leukemia; 500 mg/kg/day i.p.,0/5
same,Average Survival Time,P388 leukemia; 500 mg/kg/day i.p.,17.2 days
same,Life-Prolongation Ratio (%),P388 leukemia; 500 mg/kg/day i.p.,172%
same,30-day Survivors,P388 leukemia; 500 mg/kg/day p.o.,0/5
same,Average Survival Time,P388 leukemia; 500 mg/kg/day p.o.,15.0 days
same,Life-Prolongation Ratio (%),P388 leukemia; 500 mg/kg/day p.o.,150%
same,30-day Survivors,"P388 leukemia; 1,000 mg/kg/day p.o.",0/5
same,Average Survival Time,"P388 leukemia; 1,000 mg/kg/day p.o.",16.6 days
same,Life-Prolongation Ratio (%),"P388 leukemia; 1,000 mg/kg/day p.o.",166%
same,effectiveness against P388 leukemia,"P388 leukemia; summary of Tables 2 and 3, T/C equal to or greater than 125% regarded as effective",effective
same,30-day Survivors,sarcoma 180; 50 mg/kg/day i.p.,0/12
same,Average Survival Time,sarcoma 180; 50 mg/kg/day i.p.,25.5 days
same,Number of Dead Animals,sarcoma 180; 50 mg/kg/day i.p.,0/12
same,30-day Survivors,sarcoma 180; 50 mg/kg/day s.c.,0/12
same,Average Survival Time,sarcoma 180; 50 mg/kg/day s.c.,21.9 days
same,Number of Dead Animals,sarcoma 180; 50 mg/kg/day s.c.,0/12
same,30-day Survivors,sarcoma 180; 100 mg/kg/day i.p.,5/12
same,Average Survival Time,sarcoma 180; 100 mg/kg/day i.p.,27.7 days
same,Number of Dead Animals,sarcoma 180; 100 mg/kg/day i.p.,0/12
same,30-day Survivors,sarcoma 180; 100 mg/kg/day s.c.,0/12
same,Average Survival Time,sarcoma 180; 100 mg/kg/day s.c.,23.0 days
same,Number of Dead Animals,sarcoma 180; 100 mg/kg/day s.c.,0/12
same,LD50,[5],≥ 1500 mg/kg
